This passage reports pest or weed control results from patent publication US8188273B2, “Insecticidal (1,3,5)-triazinyl phenyl hydrazones” (Dow AgroSciences, LLC., priority 2007, dated 2012).

The test system of assay [1] is beet armyworm (Spodoptera exigua). Description: Insecticidal test on treated lepidopteran diet, beet armyworm. It is filed as in vivo. The conditions noted are these: 120 h, second-instar larvae on treated diet, 8 wells, dose of 50 mg/cm^2 [sic] (2000 ppm, 50 μL), dead insects counted 5 days after treatment, read-out: AVG LAPHEG 50 (percent control, beet army worm). The procedure: (§1) The compounds identified in Table 1 were prepared according to the previous methods and were tested against beet armyworm and corn earworm as follows:
(§2) Insecticidal Test for Corn Earworm (Helicoverpa zea) and Beet Armyworm (Spodoptera exigua).
(§3) To prepare test solution, the test compound was formulated at 2000 ppm solution as 4 mg/2 mL of 9 acetone:1 tap water. 50 μL of the 2000 ppm (equivalent to 50 μg/cm^2 dose on diet surface area) test solution was pipetted upon the surface of 1 mL of lepidopteran diet (Southland Multi-Species Lepidopteran Diet) contained in each of eight wells per insect species (one well=1 replication). A second-instar corn earworm and beet armyworm was placed upon the treated diet in each well once the solvent had air-dried. Trays containing the treated diet and larvae were covered and then held in a growth chamber at 25° C., 50-55% RH, and 16 hr light:8 hr dark for 5 days. Observation were conducted 5 days after treatment and infestation. The number of dead insects of 8 per species per treatment was then determined and the results are given in Table 1 as a percent control at a dose of […].
(§4) Keys to the table: Mass spectral data were obtained using liquid chromatography mass spectroscopy (LC-MS). The masses are detected using electrospray ionization (ESI) and reported as Mol Ion (M+H, M−H); AVG LAPHEG 50 refers to activity against beet army worm (Spodoptera exigua) as defined above; AVG HELIZE 50 refers to activity against corn ear worm (Helicoverpa zea) as described above.

The test system of assay [2] is corn earworm (Helicoverpa zea). Description: Insecticidal test on treated lepidopteran diet, corn earworm. The assay is classed as in vivo. The conditions noted are these: 120 h; second-instar larvae on treated diet, 8 wells; dose of 50 mg/cm^2 [sic] (2000 ppm, 50 μL); dead insects counted 5 days after treatment; read-out: AVG HELIZE 50 (percent control, corn ear worm). The method, then: as §1, §2, §3, §4

`CCOc1nc(N/N=C/c2ccc(OC(F)(F)F)cc2)nc(Nc2ccc(OC(F)(F)F)cc2)n1` [Compound 8]: the pest or weed control at 2000 µg/mL in assay [1] and in assay [2] was 25% in each case.
In the case of `Fc1ccc(Nc2nc(N/N=C/c3cccc(OC(F)(F)C(F)F)c3)nc(N3CCOCC3)n2)cc1F` [Compound 78], the pest or weed control at 2000 µg/mL in assay [1] is 13%; in assay [2], 88%.
Take `Fc1ccc(Nc2nc(NCc3ccc(Cl)nc3)nc(N/N=C/c3cccc(C(F)(F)F)c3)n2)cc1C(F)(F)F` [Compound 74]: the pest or weed control at 2000 µg/mL in assay [1] and in assay [2] was 100% throughout.
For `Fc1ccc(Nc2nc(NCc3ccc(Cl)nc3)nc(N/N=C/c3ccc(OC(F)(F)F)cc3)n2)cc1C(F)(F)F` [Compound 2, N-(6-Chloropyridin-3-ylmethyl)-N′-(4-fluoro-3-trifluoromethylphenyl)-6-{N′-[1-(4-trifluoromethoxyphenyl)-methylidene]-hydrazino}-[1,3,5]triazine-2,4-diamine], the pest or weed control at 2000 µg/mL in assay [1] and in assay [2] was 100% in each case.
Take `COCCNc1nc(N/N=C/c2ccc(OC(F)(F)F)cc2)nc(Nc2ccc(OC(F)(F)F)cc2)n1` [Compound 15]: the pest or weed control at 2000 µg/mL in assay [1] stood at 100%; in assay [2], 88%.
Consider `FC(F)C(F)(F)Oc1ccc(Nc2nc(NCc3ccc(Cl)nc3)nc(N/N=C/c3ccc(C(F)(F)F)cc3)n2)cc1` [Compound 93], for which the pest or weed control at 2000 µg/mL in assay [1] and in assay [2] was 100% each time.
`Fc1ccc(Nc2nc(NCc3ccc(Cl)nc3)nc(N/N=C/c3cc(Cl)cc(Cl)c3)n2)cc1C(F)(F)F` [Compound 67]: the pest or weed control at 2000 µg/mL in assay [1] and in assay [2] was 100% throughout.
Take `CCCOc1ccc(Nc2nc(N/N=C/c3cccc(OC(F)(F)C(F)F)c3)nc(N3CCOCC3)n2)cc1` [Compound 79]: the pest or weed control at 2000 µg/mL in assay [1] is 13%; in assay [2], 100%.
For the compound `FC(F)(F)COc1nc(N/N=C/c2cccc(Br)c2)nc(Nc2ccc(OC(F)(F)F)cc2)n1` [Compound 29], the pest or weed control at 2000 µg/mL in assay [1] and in assay [2] was 100% each time.
On to `FC(F)(F)Oc1ccc(Nc2nc(N/N=C/c3ccc(Cl)c(Cl)c3)nc(N3CCOCC3)n2)cc1` [Compound 39], for which the pest or weed control at 2000 µg/mL turned out to be 88% in assay [1] and 100% in assay [2].
As for `FC(F)(F)COc1nc(N/N=C/c2ccc(Br)cc2)nc(Nc2ccc(OC(F)(F)F)cc2)n1` [Compound 98], the pest or weed control at 2000 µg/mL in assay [1] and in assay [2] was 100% each time.
As for `FC(F)(F)Oc1ccc(Nc2nc(N/N=C/c3ccc(Cl)cc3Cl)nc(N3CCOCC3)n2)cc1` [Compound 40], the pest or weed control at 2000 µg/mL in assay [1] is 25%; in assay [2], 0%.
For the compound `FC(F)(F)Oc1ccc(/C=N/Nc2nc(NCCN3CCOCC3)nc(Nc3cccc(C(F)(F)F)c3)n2)cc1` [Compound 50], the pest or weed control at 2000 µg/mL in assay [1] and in assay [2] was 100% each time.
As for `FC(F)(F)Oc1ccc(/C=N/Nc2nc(NCCN3CCOCC3)nc(Nc3ccc(OC(F)(F)F)cc3)n2)cc1` [Compound 21], the pest or weed control at 2000 µg/mL in assay [1] and in assay [2] was 100% each time.
`CCOc1nc(N/N=C/c2ccc(OC(F)(F)F)cc2)nc(Nc2cccc(C(F)(F)F)c2)n1` [Compound 12]: the pest or weed control at 2000 µg/mL in assay [1] and in assay [2] was 100% throughout.
Turning to `Fc1ccc(Nc2ncnc(N/N=C/c3ccc(OC(F)(F)C(F)F)cc3)n2)cc1C(F)(F)F` [Compound 97], the pest or weed control at 2000 µg/mL in assay [1] and in assay [2] was 100% each time.
`FC(F)(F)Oc1ccc(/C=N/Nc2ncnc(Nc3cccc(C(F)(F)F)c3)n2)cc1` [Compound 101]: the pest or weed control at 2000 µg/mL in assay [1] and in assay [2] was 100% in each case.
`COCC(C)Nc1nc(N/N=C/c2ccc(OC(F)(F)F)cc2)nc(Nc2ccc(OC(F)(F)F)cc2)n1` (stereo not drawn) [Compound 24]: the pest or weed control at 2000 µg/mL in assay [1] and in assay [2] was 100% in each case.
Consider `FC(F)(F)Oc1ccc(/C=N/Nc2nc(Nc3ccc(OC(F)(F)F)cc3)nc(N3CCOCC3)n2)cc1` [Compound 4], for which the pest or weed control at 2000 µg/mL in assay [1] and in assay [2] was 100% throughout.
Turning to `Cc1cnc(CNc2nc(N/N=C/c3ccc(OC(F)(F)F)cc3)nc(Nc3ccc(F)c(C(F)(F)F)c3)n2)cn1` [Compound 57], the pest or weed control at 2000 µg/mL in assay [1] and in assay [2] was 100% throughout.
As to `CCOc1nc(N/N=C/c2cccc(C(F)(F)F)c2)nc(Nc2ccc(OC(F)(F)F)cc2)n1` [Compound 10], the pest or weed control at 2000 µg/mL worked out at 13% in assay [1] and 0% in assay [2].
`CCOc1nc(N/N=C/c2ccc(OC)cc2)nc(Nc2cccc(C(F)(F)F)c2)n1` [Compound 14]: the pest or weed control at 2000 µg/mL in assay [1] was 25%; in assay [2] it was 13%.
On to `Fc1ccc(Nc2nc(NCCc3cccnc3)nc(N/N=C/c3ccc(OC(F)(F)F)cc3)n2)cc1C(F)(F)F` [Compound 80], for which the pest or weed control at 2000 µg/mL in assay [1] and in assay [2] was 100% each time.
As to `Fc1ccc(Nc2ncnc(N/N=C/c3cccc(C(F)(F)F)c3)n2)cc1C(F)(F)F` [Compound 102], the pest or weed control at 2000 µg/mL in assay [1] and in assay [2] was 100% throughout.
Consider `FC(F)C(F)(F)Oc1cccc(Nc2nc(N/N=C/c3ccc(C(F)(F)F)cc3)nc(N3CCOCC3)n2)c1` [Compound 84], for which the pest or weed control at 2000 µg/mL turned out to be 25% in assay [1] and 75% in assay [2].
With `FC(F)(F)COc1nc(N/N=C/c2c(Cl)cccc2Cl)nc(Nc2ccc(OC(F)(F)F)cc2)n1` [Compound 35], the pest or weed control at 2000 µg/mL in assay [1] and in assay [2] was 100% throughout.
For the compound `Fc1ccc(Nc2nc(NCc3ccc(Cl)nc3)nc(N/N=C/c3ccc(Cl)c(Cl)c3)n2)cc1C(F)(F)F` [Compound 71], the pest or weed control at 2000 µg/mL in assay [1] and in assay [2] was 100% each time.
As to `Fc1ccc(Nc2nc(NCc3ccc(Cl)nc3)nc(N/N=C/c3cccc(OC(F)(F)F)c3)n2)cc1C(F)(F)F` [Compound 60], the pest or weed control at 2000 µg/mL in assay [1] and in assay [2] was 100% throughout.
For the compound `COCCNc1nc(N/N=C/c2ccc(OC(F)(F)F)cc2)nc(Nc2cccc(C(F)(F)F)c2)n1` [Compound 19], the pest or weed control at 2000 µg/mL is 100% in assay [1] and 75% in assay [2].
Consider `CONc1nc(N/N=C/c2cccc(C(F)(F)F)c2)nc(Nc2ccc(OC(F)(F)F)cc2)n1` [Compound 58], for which the pest or weed control at 2000 µg/mL in assay [1] and in assay [2] was 100% each time.
`Fc1ccc(Nc2nc(NCc3ccc(Cl)nc3)nc(N/N=C/c3cccc(Cl)c3)n2)cc1C(F)(F)F` [Compound 75]: the pest or weed control at 2000 µg/mL in assay [1] and in assay [2] was 100% in each case.
Consider `Fc1ccc(Nc2nc(NCc3ccc(Cl)nc3)nc(N/N=C/c3cccc(Br)c3)n2)cc1C(F)(F)F` [Compound 70], for which the pest or weed control at 2000 µg/mL in assay [1] and in assay [2] was 100% throughout.
As for `Fc1ccc(Nc2nc(Cl)nc(N/N=C/c3ccc(OC(F)(F)F)cc3)n2)cc1C(F)(F)F` [Compound 88], the pest or weed control at 2000 µg/mL in assay [1] and in assay [2] was 100% each time.
In the case of `Fc1ccccc1/C=N/Nc1nc(Nc2ccc(OC(F)(F)F)cc2)nc(OCC(F)(F)F)n1` [Compound 31], the pest or weed control at 2000 µg/mL in assay [1] and in assay [2] was 100% throughout.
Take `FC(F)(F)Oc1ccc(Nc2nc(N/N=C/c3cccc(Cl)c3)nc(N3CCOCC3)n2)cc1` [Compound 37]: the pest or weed control at 2000 µg/mL is 75% in assay [1] and 100% in assay [2].
`Fc1ccc(Nc2nc(NCc3ccc(Cl)nc3)nc(N/N=C/c3ccc(Cl)cc3)n2)cc1C(F)(F)F` [Compound 68]: the pest or weed control at 2000 µg/mL in assay [1] and in assay [2] was 100% in each case.
Regarding `CCOc1nc(N/N=C/c2cccc(C(F)(F)F)c2)nc(Nc2cccc(C(F)(F)F)c2)n1` [Compound 13], the figures for the pest or weed control at 2000 µg/mL in assay [1] and in assay [2] were 0% and 75%, respectively.
Turning to `Fc1ccc(Nc2ncnc(N/N=C/c3ccc(OC(F)(F)F)cc3)n2)cc1C(F)(F)F` [Compound 3, (4-Fluoro-3-trifluoromethylphenyl)-(4-{N′-[1-(4-trifluoromethoxyphenyl)-methylidene]-hydrazino}-[1,3,5]triazin-2-yl)-amine], the pest or weed control at 2000 µg/mL in assay [1] and in assay [2] was 100% each time.
Take `Fc1ccc(/C=N/Nc2nc(NCc3ccc(Cl)nc3)nc(Nc3ccc(F)c(C(F)(F)F)c3)n2)cc1` [Compound 76]: the pest or weed control at 2000 µg/mL in assay [1] and in assay [2] was 100% throughout.
